According to PubChem BioAssay AID330 (DTP/NCI, 2004):
Several values for one entry are separate records, joined by “and”; a condition that tells them apart may be missing. Equal entries are not always repeated. Toxic doses and inconclusive results are not listed. How the source made its calls: active means survival T/C of 150% or more; inactive means T/C below 125% in these data.

System: P388 leukemia ip, CD2F1 mice, survival T/C
Assay: NCI In Vivo Anticancer Drug Screen. Data for tumor model P388 Leukemia (intraperitoneal) in CD2F1 (CDF1) mice
Conditions: endpoint: median survival time, higher = longer survival
How it was run: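 Mice carrying the transplanted tumor received test compound or vehicle. Survival was recorded in each group, and the value is the treated-group measurement divided by that of the vehicle-treated control group.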

[1] = dose: 50.0 mg/kg/injection, schedule: Q01DX005 (ip), vehicle: Klucel (hydroxypropylcellulose) (HPC)
[2] = dose: 50.0 mg/kg/injection, schedule: Q01DX009 (ip), vehicle: saline
[3] = dose: 100.0 mg/kg/injection, schedule: Q01DX005 (ip), vehicle: Klucel (hydroxypropylcellulose) (HPC)
[4] = dose: 100.0 mg/kg/injection, schedule: Q01DX009 (ip), vehicle: saline
[5] = dose: 200.0 mg/kg/injection, schedule: Q01DX005 (ip), vehicle: Klucel (hydroxypropylcellulose) (HPC)
[6] = dose: 50.0 mg/kg/injection, schedule: Q01DX005 (ip), vehicle: saline with Tween-80
[7] = dose: 100.0 mg/kg/injection, schedule: Q01DX005 (ip), vehicle: saline with Tween-80
[8] = dose: 200.0 mg/kg/injection, schedule: Q01DX005 (ip), vehicle: saline with Tween-80
[9] = dose: 60.0 mg/kg/injection, schedule: Q01DX005 (ip), vehicle: Klucel (hydroxypropylcellulose) (HPC)
[10] = dose: 120.0 mg/kg/injection, schedule: Q01DX005 (ip), vehicle: Klucel (hydroxypropylcellulose) (HPC)
[11] = dose: 240.0 mg/kg/injection, schedule: Q01DX005 (ip), vehicle: Klucel (hydroxypropylcellulose) (HPC)
[12] = dose: 60.0 mg/kg/injection, schedule: Q01DX005 (ip), vehicle: saline with Tween-80
[13] = dose: 120.0 mg/kg/injection, schedule: Q01DX005 (ip), vehicle: saline with Tween-80
[14] = dose: 240.0 mg/kg/injection, schedule: Q01DX005 (ip), vehicle: saline with Tween-80
[15] = dose: 100.0 mg/kg/injection, schedule: Q01DX001 (ip), vehicle: Klucel (hydroxypropylcellulose) (HPC)
[16] = dose: 100.0 mg/kg/injection, schedule: Q01DX001 (ip), vehicle: saline with Tween-80
[17] = dose: 200.0 mg/kg/injection, schedule: Q01DX001 (ip), vehicle: saline with Tween-80
[18] = dose: 400.0 mg/kg/injection, schedule: Q01DX001 (ip), vehicle: saline with Tween-80
[19] = dose: 50.0 mg/kg/injection, schedule: Q01DX009 (ip), vehicle: saline with Tween-80
[20] = dose: 100.0 mg/kg/injection, schedule: Q01DX009 (ip), vehicle: saline with Tween-80
[21] = dose: 6.25 mg/kg/injection, schedule: Q01DX005 (ip), vehicle: saline with Tween-80
[22] = dose: 25.0 mg/kg/injection, schedule: Q01DX009 (ip), vehicle: saline with Tween-80

Measured: T/C

CC1(C)N(O)C(c2cccnc2)=[N+]([O-])C1(C)C
inactive: [1] 104 % of control | [2] 97 % of control | [3] 101 % of control | [4] 94 % of control | [5] 103 % of control | dose: 200.0 mg/kg/injection, schedule: Q01DX009 (ip), vehicle: saline 102 % of control

Cc1cccc(C(C)(C)C)c1NC(=O)CCc1nnc(N)n1N
inactive: [6] 111 % of control | [7] 100 % of control | [8] 101 % of control

CC(C)CC1N=C(NN=C(CCl)CCl)SP1(=O)NCCCCCCNP1(=O)SC(NN=C(CCl)CCl)=NC1CC(C)C (stereo not drawn)
inactive: [9] 100 % of control | [10] 103 % of control | [11] 102 % of control

O=C(CCC(=O)C1CCCC1=O)Nc1cccc([N+](=O)[O-])c1 (stereo not drawn)
inactive: [12] 102 % of control | [13] 102 % of control | [14] 101 % of control

CNC(=O)OCCC(OC(=O)NC)C1CCC2C3CC=C4CC(OC(C)=O)CCC4(C)C3CCC12C (stereo not drawn)
inactive: [15] 103 % of control | dose: 200.0 mg/kg/injection, schedule: Q01DX001 (ip), vehicle: Klucel (hydroxypropylcellulose) (HPC) 104 % of control | dose: 400.0 mg/kg/injection, schedule: Q01DX001 (ip), vehicle: Klucel (hydroxypropylcellulose) (HPC) 110 % of control

COC(=O)/C(=C\C=C\c1ccccc1)NC(=O)c1ccccc1
inactive: [16] 100 % of control | [17] 96 % of control | [18] 89 % of control

CN(C)CCOC(=O)C1CC2(C1)CC(C(=O)OCCN(C)C)C2 (stereo not drawn)
inactive: [1] 95 % of control | [3] 97 % of control | [5] 103 % of control

NNC(=O)c1cc2ccccc2cc1O
inactive: [19] 99 % of control | [20] 100 % of control | dose: 200.0 mg/kg/injection, schedule: Q01DX009 (ip), vehicle: saline with Tween-80 95 % of control

c1ccc2c(c1)C1c3cccc[n+]3C2C2C1CC1C3c4ccccc4C(C12)[n+]1ccccc13 (stereo not drawn)
inactive: dose: 1.56 mg/kg/injection, schedule: Q01DX005 (ip), vehicle: saline with Tween-80 102 % of control | dose: 3.13 mg/kg/injection, schedule: Q01DX005 (ip), vehicle: saline with Tween-80 102 % of control | [21] 104 % of control and 94 % of control

C=C(c1ccc2nc(NC(=O)OC)[nH]c2c1)c1cccs1
inactive: dose: 25.0 mg/kg/injection, schedule: Q01DX005 (ip), vehicle: saline with Tween-80 108 % of control | [6] 99 % of control | [7] 98 % of control | [8] 100 % of control

[NH-]CC(=O)O.[NH-]CC(=O)O.[Ni+2]
inactive: [21] 100 % of control | dose: 12.5 mg/kg/injection, schedule: Q01DX005 (ip), vehicle: saline with Tween-80 100 % of control

OCC(O)C(O)C(O)C(O)c1nnc2n[nH]c(=S)n2n1 (stereo not drawn)
inactive: dose: 25.0 mg/kg/injection, schedule: Q01DX001 (ip), vehicle: Klucel (hydroxypropylcellulose) (HPC) 100 % of control | dose: 50.0 mg/kg/injection, schedule: Q01DX001 (ip), vehicle: Klucel (hydroxypropylcellulose) (HPC) 98 % of control | [15] 100 % of control

Nc1nc2[nH]ccc2c(=O)[nH]1
inactive: dose: 12.5 mg/kg/injection, schedule: Q01DX009 (ip), vehicle: saline with Tween-80 95 % of control | [22] 94 % of control | [19] 104 % of control | [20] 113 % of control

CC[C@@H](C)C(=O)O[C@H]1[C@H](O)[C@H]2[C@@H](CN3C[C@@H](C)CC[C@H]3[C@@]2(C)O)[C@@H]2CC34O[C@]5(O)[C@@H](OC(=O)[C@@](C)(O)CC)CC[C@@]3(C)[C@@H]5[C@@H](OC(C)=O)[C@@H](OC(C)=O)[C@H]4[C@@]21O
inactive: dose: 0.1 mg/kg/injection, schedule: Q01DX005 (ip), vehicle: saline 102 % of control | dose: 0.4 mg/kg/injection, schedule: Q01DX005 (ip), vehicle: saline with Tween-80 100 % of control | dose: 25.0 micrograms/kg/injection, schedule: Q01DX005 (ip), vehicle: saline 97 % of control | dose: 50.0 micrograms/kg/injection, schedule: Q01DX005 (ip), vehicle: saline 94 % of control | dose: 100.0 micrograms/kg/injection, schedule: Q01DX005 (ip), vehicle: saline 94 % of control

O=C1OC(c2cccnc2)OC(c2ccccc2)=C1C(=O)c1ccccc1 (stereo not drawn)
inactive: [9] 107 % of control | [10] 98 % of control | [11] 97 % of control

Cn1c(-c2ccccc2Cl)cc(C=O)c1-c1ccccc1
inactive: [16] 99 % of control | [17] 93 % of control | [18] 93 % of control

C[C@@H]1C[C@@]2(C)[C@@H](CC[C@@H]3[C@@H]2CC[C@@]2(C)[C@H]3CC[C@]2(C)O)CC1=O
inactive: dose: 25.0 mg/kg/injection, schedule: Q01DX009 (ip), vehicle: saline sonified 95 % of control | dose: 25.0 mg/kg/injection, schedule: Q04DX003 (ip), vehicle: saline with Tween-80 100 % of control | dose: 50.0 mg/kg/injection, schedule: Q01DX009 (ip), vehicle: saline sonified 86 % of control | dose: 50.0 mg/kg/injection, schedule: Q04DX003 (ip), vehicle: saline with Tween-80 100 % of control | dose: 100.0 mg/kg/injection, schedule: Q01DX009 (ip), vehicle: saline sonified 95 % of control | dose: 100.0 mg/kg/injection, schedule: Q04DX003 (ip), vehicle: saline with Tween-80 100 % of control

CC(C)CCCC(C)C1CCC2C3CCC4CC(OS(C)(=O)=O)CCC4(C)C3CCC12C (stereo not drawn)
inactive: dose: 50.0 mg/kg/injection, schedule: Q01DX009 (ip), vehicle: Klucel (hydroxypropylcellulose) (HPC) 96 % of control | dose: 100.0 mg/kg/injection, schedule: Q01DX009 (ip), vehicle: Klucel (hydroxypropylcellulose) (HPC) 106 % of control | dose: 200.0 mg/kg/injection, schedule: Q01DX009 (ip), vehicle: Klucel (hydroxypropylcellulose) (HPC) 103 % of control

CCS(=O)(=O)c1ncnc2nc[nH]c12
inactive: [1] 100 % of control | [3] 102 % of control | [5] 100 % of control

Cc1cc(C)n(-c2ccnc(N3CCOCC3)n2)n1
inactive: dose: 100.0 mg/kg/injection, schedule: Q01DX001 (ip), vehicle: saline 100 % of control | dose: 200.0 mg/kg/injection, schedule: Q01DX001 (ip), vehicle: saline 96 % of control | dose: 400.0 mg/kg/injection, schedule: Q01DX001 (ip), vehicle: saline 97 % of control

NCCN(Cc1ccccc1)C1CC1
inactive: [2] 98 % of control | [4] 91 % of control

O=C(SCN1CCCCC1)c1ccccc1
inactive: [22] 100 % of control | [19] 113 % of control | [20] 109 % of control

OCC(O)c1c(-c2ccc(Cl)cc2)c(-c2ccccc2)c2n1CCC2 (stereo not drawn)
inactive: [1] 97 % of control | [3] 100 % of control | [5] 90 % of control

COc1c2c(c3c(c1OC)CCN(CC(c1ccccc1)c1ccccc1)C3)CCC2
inactive: dose: 100.0 mg/kg/injection, schedule: Q04DX002 (ip), vehicle: saline 101 % of control | dose: 200.0 mg/kg/injection, schedule: Q04DX002 (ip), vehicle: saline 100 % of control | dose: 400.0 mg/kg/injection, schedule: Q04DX002 (ip), vehicle: saline 103 % of control

c1ccc(-c2ccc[n+](C[n+]3cccc(-c4ccccn4)c3)c2)nc1
inactive: dose: 60.0 mg/kg/injection, schedule: Q01DX005 (ip), vehicle: saline 109 % of control | dose: 120.0 mg/kg/injection, schedule: Q01DX005 (ip), vehicle: saline 104 % of control | dose: 240.0 mg/kg/injection, schedule: Q01DX005 (ip), vehicle: saline 106 % of control

CC(C)(C)/C=C/N=NNc1cc2ccccc2s1
inactive: [9] 100 % of control | [10] 105 % of control | [11] 108 % of control

O=S(=O)(Nc1ccc(Cl)cc1)c1ccc(F)cc1
inactive: [12] 101 % of control | [13] 100 % of control | [14] 99 % of control

COCn1cc(C(N)=O)c(=O)c2c(N)nc(SC)nc21
inactive: dose: 25.0 mg/kg/injection, schedule: Q04DX002 (ip), vehicle: saline with Tween-80 96 % of control

COc1ccc(-n2c(C)nc3c(cnn3CN3CCCCC3)c2=O)cc1
inactive: [9] 102 % of control | [10] 102 % of control | [11] 94 % of control
